Source: PubChem BioAssay AID180 (DTP/NCI, 2004)
Values joined by “and” are separate entries in the source; they are usually repeats but may differ in a detail not shown here. Equal values may be shown once.

Tested on: BDF1 mice, Adenocarcinoma 755 s.c., tumor weight T/C
Assay: NCI In Vivo Anticancer Drug Screen. Data for tumor model Adenocarcinoma 755 (subcutaneous) in B6D2F1 (BDF1) mice
Conditions: endpoint: mean tumor weight, higher = larger tumour
Method in brief: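 Readout: T/C, i.e. treated-group measurement over vehicle-control measurement. Endpoint is survival or tumor size in tumor-bearing mice given compound.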

[1] = dose: 25.0 mg/kg/injection, schedule: Q01DX011 (ip), vehicle: other
[2] = dose: 50.0 mg/kg/injection, schedule: Q01DX011 (ip), vehicle: other
[3] = dose: 150.0 mg/kg/injection, schedule: Q01DX011 (ip), vehicle: other
[4] = dose: 12.5 mg/kg/injection, schedule: Q01DX011 (ip), vehicle: other

NC(=O)N(CCCl)N=O
T/C (dose: 0.23 mg/kg/injection, schedule: Q01DX011 (ip), vehicle: methylcellulose (MC)): 54 % of control and 59 % of control
T/C (dose: 0.9 mg/kg/injection, schedule: Q01DX011 (ip), vehicle: methylcellulose (MC)): 34 % of control and 38 % of control
T/C (dose: 1.8 mg/kg/injection, schedule: Q01DX011 (ip), vehicle: methylcellulose (MC)): 27 % of control

COC(=O)[C@@H]1c2cc3c(c(O)c2[C@@H](OC2OC(C)C(OC)C(C)(OC)C2OC)C[C@]1(C)O)C(=O)c1c(O)cc2c(c1C3=O)O[C@H]1O[C@]2(C)[C@H](O)[C@@H](N(C)C)[C@@H]1O (some centres not stated)
T/C (dose: 0.2 mg/kg/injection, schedule: Q01DX011 (ip), vehicle: carboxymethylcellulose (CMC)): 83 % of control
T/C (dose: 0.3 mg/kg/injection, schedule: Q01DX011 (ip), vehicle: carboxymethylcellulose (CMC)): 89 % of control
T/C (dose: 0.3 mg/kg/injection, schedule: Q01DX011 (ip), vehicle: saline): 179 % of control
T/C (dose: 0.44 mg/kg/injection, schedule: Q01DX011 (ip), vehicle: carboxymethylcellulose (CMC)): 57 % of control
T/C (dose: 0.44 mg/kg/injection, schedule: Q01DX011 (ip), vehicle: saline): 113 % of control
T/C (dose: 0.67 mg/kg/injection, schedule: Q01DX011 (ip), vehicle: carboxymethylcellulose (CMC)): 99 % of control
T/C (dose: 1.0 mg/kg/injection, schedule: Q01DX011 (ip), vehicle: carboxymethylcellulose (CMC)): 103 % of control

CN1CCC(N)=NC1=O
T/C (dose: 15.0 mg/kg/injection, schedule: Q01DX011 (ip), vehicle: saline): 88 % of control
T/C (dose: 31.0 mg/kg/injection, schedule: Q01DX011 (ip), vehicle: saline): 92 % of control
T/C (dose: 62.0 mg/kg/injection, schedule: Q01DX011 (ip), vehicle: saline): 92 % of control
T/C (dose: 125.0 mg/kg/injection, schedule: Q01DX011 (ip), vehicle: saline): 65 % of control
T/C (dose: 250.0 mg/kg/injection, schedule: Q01DX011 (ip), vehicle: saline): 74 % of control

CN(N=O)C(N)=O
T/C (dose: 2.5 mg/kg/injection, schedule: Q01DX011 (ip), vehicle: methylcellulose (MC)): 109 % of control
T/C (dose: 2.81 mg/kg/injection, schedule: Q01DX011 (ip), vehicle: carboxymethylcellulose (CMC)): 78 % of control
T/C (dose: 3.16 mg/kg/injection, schedule: Q01DX011 (ip), vehicle: carboxymethylcellulose (CMC)): 78 % of control
T/C (dose: 5.0 mg/kg/injection, schedule: Q01DX011 (ip), vehicle: methylcellulose (MC)): 97 % of control
T/C (dose: 5.62 mg/kg/injection, schedule: Q01DX011 (ip), vehicle: carboxymethylcellulose (CMC)): 120 % of control
T/C (dose: 6.32 mg/kg/injection, schedule: Q01DX011 (ip), vehicle: carboxymethylcellulose (CMC)): 76 % of control
T/C (dose: 6.33 mg/kg/injection, schedule: Q01DX011 (ip), vehicle: carboxymethylcellulose (CMC)): 79 % of control
T/C (dose: 7.2 mg/kg/injection, schedule: Q01DX011 (ip), vehicle: carboxymethylcellulose (CMC)): 108 % of control
T/C (dose: 9.0 mg/kg/injection, schedule: Q01DX011 (ip), vehicle: carboxymethylcellulose (CMC)): 77 % of control
T/C (dose: 10.0 mg/kg/injection, schedule: Q01DX011 (ip), vehicle: methylcellulose (MC)): 87 % of control
T/C (dose: 10.12 mg/kg/injection, schedule: Q01DX011 (ip), vehicle: carboxymethylcellulose (CMC)): 109 % of control and 119 % of control
T/C (dose: 12.0 mg/kg/injection, schedule: Q01DX011 (ip), vehicle: carboxymethylcellulose (CMC)): 79 % of control
T/C (dose: 13.0 mg/kg/injection, schedule: Q01DX011 (ip), vehicle: carboxymethylcellulose (CMC)): 93 % of control
T/C (dose: 15.0 mg/kg/injection, schedule: Q01DX011 (ip), vehicle: carboxymethylcellulose (CMC)): 97 % of control and 85 % of control
T/C (dose: 18.0 mg/kg/injection, schedule: Q01DX011 (ip), vehicle: carboxymethylcellulose (CMC)): 13 % of control
T/C (dose: 20.0 mg/kg/injection, schedule: Q01DX011 (ip), vehicle: methylcellulose (MC)): 27 % of control
T/C (dose: 22.5 mg/kg/injection, schedule: Q01DX011 (ip), vehicle: carboxymethylcellulose (CMC)): 21 % of control and 42 % of control
T/C (dose: 25.0 mg/kg/injection, schedule: Q01DX011 (ip), vehicle: carboxymethylcellulose (CMC)): 24 % of control

CN1CC(=O)N=C1N
T/C (dose: 250.0 mg/kg/injection, schedule: Q#A X022 (ip), vehicle: water): 47 % of control
T/C (dose: 375.0 mg/kg/injection, schedule: Q#A X022 (ip), vehicle: water): 88 % of control
T/C (dose: 500.0 mg/kg/injection, schedule: Q#A X022 (ip), vehicle: water): 36 % of control
T/C (dose: 750.0 mg/kg/injection, schedule: Q#A X022 (ip), vehicle: water): 67 % of control
T/C (dose: 1250.0 mg/kg/injection, schedule: Q#A X022 (ip), vehicle: water): 72 % of control
T/C (dose: 1500.0 mg/kg/injection, schedule: Q#A X022 (ip), vehicle: water): 68 % of control

NC(=O)c1ccc(NC(=O)/C=C/C(=O)Nc2ccc(C(N)=O)cn2)nc1
T/C (dose: 0.47 mg/kg/injection, schedule: Q01DX011 (ip), vehicle: carboxymethylcellulose (CMC)): 75 % of control
T/C (dose: 0.94 mg/kg/injection, schedule: Q01DX011 (ip), vehicle: carboxymethylcellulose (CMC)): 69 % of control
T/C (dose: 1.87 mg/kg/injection, schedule: Q01DX011 (ip), vehicle: carboxymethylcellulose (CMC)): 28 % of control

Cc1ccc(Nc2nc(N)nc(C)c2Br)cc1
T/C (dose: 15.0 mg/kg/injection, schedule: Q01DX011 (ip), vehicle: methylcellulose (MC)): 98 % of control
T/C (dose: 31.0 mg/kg/injection, schedule: Q01DX011 (ip), vehicle: methylcellulose (MC)): 95 % of control
T/C (dose: 62.0 mg/kg/injection, schedule: Q01DX011 (ip), vehicle: methylcellulose (MC)): 82 % of control
T/C (dose: 125.0 mg/kg/injection, schedule: Q01DX011 (ip), vehicle: methylcellulose (MC)): 70 % of control
T/C (dose: 250.0 mg/kg/injection, schedule: Q01DX011 (ip), vehicle: methylcellulose (MC)): 83 % of control

CCNS(=O)(=O)c1ncnc2nc[nH]c12
T/C (dose: 6.0 mg/kg/injection, schedule: Q01DX011 (ip), vehicle: other): 94 % of control
T/C (dose: 6.2 mg/kg/injection, schedule: Q01DX011 (ip), vehicle: methylcellulose (MC)): 66 % of control
T/C (dose: 12.0 mg/kg/injection, schedule: Q01DX011 (ip), vehicle: other): 32 % of control
T/C (dose: 12.5 mg/kg/injection, schedule: Q01DX011 (ip), vehicle: methylcellulose (MC)): 36 % of control
T/C (dose: 25.0 mg/kg/injection, schedule: Q01DX011 (ip), vehicle: methylcellulose (MC)): 7 % of control and 10 % of control
T/C [1]: 15 % of control
T/C [2]: 5 % of control
T/C (dose: 100.0 mg/kg/injection, schedule: Q01DX011 (ip), vehicle: other): 10 % of control
T/C [3]: 5 % of control

O=C(OCC1OC(n2cnc3c(=S)nc[nH]c32)C(OC(=O)c2ccc([N+](=O)[O-])cc2)C1OC(=O)c1ccc([N+](=O)[O-])cc1)c1ccc([N+](=O)[O-])cc1 (configuration not stated)
T/C (dose: 6.25 mg/kg/injection, schedule: Q01DX011 (ip), vehicle: other): 70 % of control
T/C [4]: 85 % of control
T/C [1]: 58 % of control and 68 % of control
T/C [2]: 52 % of control and 76 % of control
T/C (dose: 75.0 mg/kg/injection, schedule: Q01DX011 (ip), vehicle: other): 8 % of control
T/C [3]: 1 % of control
T/C (dose: 200.0 mg/kg/injection, schedule: Q01DX011 (ip), vehicle: other): 1 % of control and 6 % of control
T/C (dose: 250.0 mg/kg/injection, schedule: Q01DX011 (ip), vehicle: other): 3 % of control

N#[N+]c1cn(C2CC(O)C(CO)O2)c(=O)[nH]c1=O (configuration not stated)
T/C (dose: 30.0 mg/kg/injection, schedule: Q01DX011 (ip), vehicle: saline): 106 % of control
T/C (dose: 60.0 mg/kg/injection, schedule: Q01DX011 (ip), vehicle: saline): 118 % of control
T/C (dose: 120.0 mg/kg/injection, schedule: Q01DX011 (ip), vehicle: saline): 94 % of control
T/C (dose: 240.0 mg/kg/injection, schedule: Q01DX011 (ip), vehicle: saline): 47 % of control

Cc1ccc(CNc2ncnc3c2cnn3C2CCCCO2)cc1 (configuration not stated)
T/C (dose: 18.7 mg/kg/injection, schedule: Q01DX011 (ip), vehicle: methylcellulose (MC)): 109 % of control
T/C (dose: 37.5 mg/kg/injection, schedule: Q01DX011 (ip), vehicle: methylcellulose (MC)): 35 % of control
T/C (dose: 75.0 mg/kg/injection, schedule: Q01DX011 (ip), vehicle: methylcellulose (MC)): 88 % of control
T/C (dose: 150.0 mg/kg/injection, schedule: Q01DX011 (ip), vehicle: methylcellulose (MC)): 44 % of control

NOCC(=O)O
T/C (dose: 6.25 mg/kg/injection, schedule: Q01DX011 (ip), vehicle: water): 62 % of control
T/C [4]: 54 % of control
T/C (dose: 12.5 mg/kg/injection, schedule: Q01DX011 (ip), vehicle: water): 68 % of control and 70 % of control
T/C (dose: 18.75 mg/kg/injection, schedule: Q01DX011 (ip), vehicle: other): 65 % of control
T/C (dose: 25.0 mg/kg/injection, schedule: Q01DX011 (ip), vehicle: water): 29 % of control
